Among the test systems are A498 renal; ACHN renal; HCC-2998 colon; HCT-116 colon; KM12 colon; M14 melanoma; NCI-H460 lung; RXF 393 renal; SNB-19 CNS; U251 CNS.
What all share (test): DTP human tumour cell line panel, 48 h

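In this assay, cells in 96-well plates receive the compound at five concentrations for 48 hours. Endpoints are linearly interpolated between the surrounding concentrations. GI50 is the concentration that inhibits growth by half. Definition used: TGI = concentration required for complete inhibition of growth.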

The term GI50 denotes the concentration that inhibits growth by half. What is called TGI is the concentration giving total growth inhibition. In the case of `O=C(Nc1ccc(I)cc1)c1cc([N+](=O)[O-])ccc1O`, the GI50 with A498 renal was 1.45 µM; in the assay with ACHN renal, 9.28 µM; with HCC-2998 colon it was 3.82 µM; in the assay on HCT-116 colon, 6.21 µM; in the assay with KM12 colon, 5.36 µM; in the assay on M14 melanoma, 12.8 µM. For the same compound, the GI50 is 6.42 µM in the assay on NCI-H460 lung, 2.86 µM with RXF 393 renal, 5.5 µM in the assay with SNB-19 CNS and 6.4 µM in the assay with U251 CNS. The TGI in the assay with A498 renal is 5.17 µM; with ACHN renal it was over 100 µM; in the assay on HCC-2998 colon, 84 µM; with HCT-116 colon it was 31.7 µM; with KM12 colon it was 40.9 µM; in the assay on M14 melanoma, 62.8 µM. Further, the TGI with NCI-H460 lung is 56.8 µM; with RXF 393 renal, 23.7 µM; with SNB-19 CNS it was over 100 µM; in the assay on U251 CNS, 66.1 µM.
On to `CCOC(=O)Nc1nc2ccc(OCC)cc2s1`, for which the GI50 in the assay on A498 renal was over 100 µM; in the assay on ACHN renal, over 100 µM; in the assay with HCC-2998 colon it was 31.6 µM; in the assay with HCT-116 colon, 6.42 µM; with KM12 colon it was 3.31 µM; in the assay on M14 melanoma, 6.84 µM. Moreover, the GI50 was 6.28 µM in the assay with NCI-H460 lung, over 53.4 µM in the assay with RXF 393 renal, over 100 µM in the assay with SNB-19 CNS and 25.5 µM in the assay on U251 CNS. In addition, the concentration for total growth inhibition (TGI) in the assay with A498 renal, in the assay on ACHN renal, in the assay with HCC-2998 colon, in the assay with HCT-116 colon, in the assay on KM12 colon and in the assay with M14 melanoma was over 100 µM in each case. The TGI in the assay with NCI-H460 lung, in the assay on RXF 393 renal, in the assay on SNB-19 CNS and in the assay on U251 CNS was over 100 µM throughout.
As for `O=C(N/C(=C\c1cc(Cl)ccc1Cl)c1nc2[nH]c(=S)[nH]c(=O)c2[nH]1)c1ccccc1`, the TGI in the assay on A498 renal was over 100 µM; in the assay on ACHN renal, over 100 µM; in the assay on HCC-2998 colon, 30.7 µM; with HCT-116 colon, 21.3 µM; in the assay with KM12 colon it was 73.6 µM; with M14 melanoma, over 56.5 µM. Also, the TGI was over 100 µM in the assay on NCI-H460 lung, 41.5 µM in the assay with RXF 393 renal, over 100 µM with SNB-19 CNS and over 76.1 µM in the assay with U251 CNS.
As for `CN(C)c1ccc(-c2cc(-c3ccc(Nc4nc(Nc5ccc(Cl)cc5)nc(Nc5ccc(Cl)cc5)n4)cc3)no2)cc1`, the GI50 with A498 renal is 4.38 µM; with ACHN renal, 7.9 µM; with HCC-2998 colon it was 7.37 µM; in the assay on HCT-116 colon, 2.84 µM; with KM12 colon, 4.11 µM; in the assay on M14 melanoma it was 2.62 µM. The GI50 with NCI-H460 lung is 3.03 µM; in the assay on RXF 393 renal, 2.76 µM; in the assay with SNB-19 CNS, 18.7 µM; in the assay on U251 CNS, 6.27 µM. The concentration for total growth inhibition (TGI) is 22.7 µM in the assay with A498 renal; over 100 µM in the assay with ACHN renal; 96.7 µM in the assay with HCC-2998 colon; 11.8 µM with HCT-116 colon; 25.3 µM with KM12 colon; 13.3 µM in the assay on M14 melanoma. Moreover, the TGI is 12.3 µM in the assay on NCI-H460 lung, 6.04 µM in the assay on RXF 393 renal, over 100 µM in the assay on SNB-19 CNS and 61.8 µM in the assay with U251 CNS.
In the case of `CCc1ccc2c(c1)C(=O)c1c-2n(CCCBr)c(=O)c2cc([N+](=O)[O-])ccc12`, the GI50 with A498 renal, in the assay on ACHN renal, in the assay on HCC-2998 colon, in the assay on HCT-116 colon, in the assay with KM12 colon and with M14 melanoma was over 50 µM in each case. In addition, the GI50 is over 50 µM in the assay on NCI-H460 lung, 21.8 µM in the assay on RXF 393 renal, 30.8 µM in the assay on SNB-19 CNS and 26 µM with U251 CNS. Further, the concentration for total growth inhibition (TGI) in the assay on A498 renal, with ACHN renal, in the assay on HCC-2998 colon, in the assay with HCT-116 colon, in the assay on KM12 colon and in the assay on M14 melanoma was over 50 µM each time. The total growth inhibition concentration (TGI) in the assay on NCI-H460 lung, in the assay with RXF 393 renal, with SNB-19 CNS and in the assay on U251 CNS was over 50 µM each time.
For `Nc1cc2nc3ccccc3sc-2cc1=O`, the GI50 in the assay with A498 renal was 2.32 µM; in the assay with ACHN renal, 2.5 µM; with HCC-2998 colon it was 3.95 µM; in the assay on HCT-116 colon, 2.56 µM; in the assay on KM12 colon, 10.8 µM; with M14 melanoma, 1.66 µM. For the same compound, the GI50 in the assay on NCI-H460 lung was 2.9 µM; in the assay on RXF 393 renal it was 2.13 µM; with SNB-19 CNS it was 6.13 µM; with U251 CNS, 3.63 µM. Further, the TGI in the assay with A498 renal came out at 8.71 µM; in the assay with ACHN renal, 11.1 µM; with HCC-2998 colon, 13.3 µM; with HCT-116 colon, 10.3 µM; with KM12 colon it was 30.6 µM; with M14 melanoma, 3.2 µM. In addition, the total growth inhibition concentration (TGI) in the assay on NCI-H460 lung was found to be 10.2 µM; in the assay with RXF 393 renal, 6.14 µM; in the assay on SNB-19 CNS, 20 µM; with U251 CNS it was 15.1 µM.
On to `Cc1cc2nc(C(Cl)Cl)nc(-c3ccc(Cl)cc3)n2n1`, for which the GI50 was 1.09 µM in the assay on A498 renal; 0.386 µM in the assay with ACHN renal; 0.788 µM in the assay on HCC-2998 colon; 0.566 µM in the assay on HCT-116 colon; 0.414 µM in the assay with KM12 colon; 1.31 µM with M14 melanoma. The GI50 was 0.304 µM in the assay with NCI-H460 lung, 0.764 µM with RXF 393 renal, 1.05 µM with SNB-19 CNS and 0.509 µM with U251 CNS. Further, the total growth inhibition concentration (TGI) in the assay with A498 renal is 2.65 µM; with ACHN renal, 2.24 µM; in the assay on HCC-2998 colon, 2.33 µM; with HCT-116 colon, over 33.1 µM; in the assay with KM12 colon, 1.74 µM; in the assay on M14 melanoma it was 3.25 µM. Besides, the TGI is 1.09 µM in the assay with NCI-H460 lung, 2.27 µM in the assay with RXF 393 renal, 4.64 µM in the assay with SNB-19 CNS and 3.7 µM in the assay on U251 CNS.
For the compound `CC(C)c1ccc(C(C)C(=O)N(CC2=C(C(C)c3ccccn3)c3ccccc3C2)C(C)C)cc1` (stereo not given), the GI50 in the assay on A498 renal is 0.801 µM; in the assay with ACHN renal it was 3.22 µM; with HCC-2998 colon, 4.52 µM; with HCT-116 colon it was 1.94 µM; in the assay with KM12 colon, 3.36 µM; in the assay on M14 melanoma, 3.93 µM. Further, the GI50 is 2.62 µM in the assay on NCI-H460 lung, 2.38 µM in the assay with RXF 393 renal, 6.66 µM with SNB-19 CNS and 2.85 µM in the assay on U251 CNS. Also, the TGI in the assay on A498 renal is 5.59 µM; with ACHN renal, over 100 µM; in the assay with HCC-2998 colon, 39.1 µM; in the assay with HCT-116 colon it was 8.02 µM; in the assay on KM12 colon, 12.2 µM; with M14 melanoma, 15.6 µM. The TGI in the assay on NCI-H460 lung was 8.35 µM; in the assay on RXF 393 renal, 14.3 µM; in the assay with SNB-19 CNS it was over 100 µM; in the assay on U251 CNS it was 13.6 µM.
